For 16 compounds, TGI and GI50 results are on record in PubChem BioAssay (NCI).

What all share (experiment): growth of human tumour cells (NCI), 48 h
Assay [1] relates to IGROV1 ovarian.
Assay [2] relates to K-562 leukemia.
Assay [3] deals with CCRF-CEM leukemia.
In assay [4] the test system is RXF 393 renal.
Assay [5] deals with MCF7 breast.
Assay [6] deals with LOX IMVI melanoma.
Assay [7] deals with NCI-H460 lung.
Assay [8] concerns A498 renal.
Assay [9] has as its system SF-539 CNS.

Structures are written as SMILES.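 Results reflect a 48-hour exposure of cells in 96-well plates to compound at five concentrations. GI50 is the concentration that inhibits growth by half. TGI marks complete inhibition of growth.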

For `O=S(c1ccccc1)C1CC2CC3(CCC21O)OCCO3` (configuration not stated), the TGI in assay [1], in assay [2], in [3], in [4], in assay [5] and in assay [6] was more than 100 µM in each case. The TGI in assay [7] and in assay [8] was more than 100 µM throughout.

Regarding `C[N+](C)=c1ccc2nc3c(ccc4ccccc43)oc-2c1`, the TGI in assay [1] was 17.2 µM; in [9], 32.2 µM; in [2] it was 9.39 µM; in [3] it was 8.53 µM; in assay [4] it was 26 µM; in assay [6] it was 15.4 µM. Also, the figures for the TGI in [7] and in assay [8] were 37.7 µM and 32.6 µM, respectively.

As to `CC1(C)OC2CC3COC(=O)C3CC2O1` (configuration not stated), the TGI in assay [1], in assay [9], in [2], in assay [3], in assay [6] and in assay [7] was more than 100 µM each time. For the same compound, in assay [8], the TGI is more than 100 µM.

`C=CC(C)(C)C1(CC(OC)OC)C(=O)N(C)c2ccccc21` (configuration not stated): the TGI in assay [2], in assay [3], in [4], in assay [5], in assay [6] and in assay [7] was more than 25 µM throughout. The TGI in assay [8] was more than 25 µM.

As for `C/C=C/c1cc2c(c(=O)o1)C(=O)[C@@H](O)[C@H](C)O2`, the TGI in assay [1] was 23.3 µM; in [9], 33.6 µM; in [2], more than 100 µM; in assay [3], 53.9 µM; in [4] it was 27.2 µM; in [5] it was 14.8 µM. Also, the TGI in [6] was 26.4 µM; in assay [7] it was 46.9 µM; in [8], 16.9 µM.

As for `CC1(C)Oc2ccc3c(=O)cc(-c4cccs4)oc3c2C1C(=O)O` (configuration not stated), the TGI in assay [1], in [9], in assay [2], in assay [3], in [4] and in [5] was more than 100 µM each time. In assay [8], this compound yielded a TGI of more than 100 µM.

Consider `Nc1ccc2nc(Nc3ccc(Cl)c(Cl)c3)cnc2c1`, for which the TGI amounted to 64.5 µM in [9]; 82.5 µM in [2]; 9.57 µM in [3]; 28 µM in assay [6]; 45.3 µM in assay [7].

With `COC1=CC(=O)C2C(C1=O)[C@@H]1c3ccccc3OC(C)(C)[C@H]21` (some centres not stated), the TGI was 58.3 µM in assay [9]; 38.1 µM in assay [2]; 65.1 µM in assay [3]; 27.1 µM in assay [4]; 27.2 µM in assay [6]; more than 100 µM in assay [7]. Further, the TGI in assay [8] is more than 100 µM.

As to `CCCCCCCCCCCCCCCCNCC(O)CN` (configuration not stated), the TGI in [1] was found to be 18.9 µM; in assay [9] it was 4.72 µM; in [2] it was 3.35 µM; in assay [3] it was 3.72 µM; in assay [4] it was 8.16 µM; in assay [5], 6.47 µM. Moreover, the TGI was 3.45 µM in assay [6], 3.56 µM in [7] and 41.9 µM in assay [8].

Consider `Cc1c(-c2coc(-c3ccccc3)n2)c(=O)n(-c2ccccc2)n1C`, for which the TGI in [1], in assay [9], in [3], in assay [6], in assay [7] and in assay [8] was more than 100 µM in each case.

For the compound `N#CNC(=NCc1ccccc1)NCCc1c[nH]c2ccccc12`, the TGI in [1], in assay [9], in assay [2], in assay [3], in [4] and in [6] was more than 100 µM in each case. In [7], this compound displayed a TGI of more than 100 µM.

Consider `C[C@]12C(=O)C=CCC1=CC[C@@H]1[C@@H]2[C@H]2CC3(O)C(=O)O[C@@]4(C)[C@H]5C[C@@]6(C)[C@@H]7[C@@]2(O)[C@]1(OC[C@H]6C(=O)O5)O[C@]734` (some centres not stated), for which the TGI in assay [1] was more than 100 µM; in assay [9] it was 42.9 µM; in [2], more than 100 µM; in assay [3], more than 100 µM; in assay [4] it was 55.7 µM; in assay [5], more than 100 µM. Besides, the TGI in assay [6] was 75.5 µM; in [7], more than 100 µM; in [8], more than 100 µM.

`C=CCNc1nc(O)c(/C=C2\C=Nc3ncccc32)s1`: the GI50 in assay [1] was 2.86 µM; in assay [9], 0.524 µM; in assay [2] it was 4.26 µM; in assay [4] it was 2.07 µM; in [5] it was 2.2 µM; in assay [6], 2.73 µM. In addition, the values for the GI50 in [7] and in assay [8] were 2.74 µM and 1.5 µM, respectively. Besides, the TGI in [1] was more than 100 µM; in assay [9], 2.06 µM; in [2], more than 100 µM; in assay [4], 4.25 µM; in [5], more than 100 µM; in assay [6] it was more than 100 µM. The TGI stood at 9.96 µM in assay [7] and 3.7 µM in assay [8].

As for `N=c1n(CC(=O)NC23CC4CC(CC(C4)C2)C3)c2ccccc2n1CC(=O)NC12CC3CC(CC(C3)C1)C2`, the TGI was 3.1 µM in assay [1]; 3.36 µM in assay [9]; 5.54 µM in [2]; 6.23 µM in assay [3]; 3.17 µM in assay [4]; 3.17 µM in assay [7]. The TGI in assay [8] was 3.15 µM.

As for `N=S(=O)(c1ccccc1)c1ccccc1`, the TGI in assay [1], in assay [9], in [2], in assay [3], in [6] and in [7] was more than 100 µM throughout. The compound also returned a TGI in assay [8] of more than 100 µM.

On to `CC(C(=O)NCCNC(=O)CCC(=O)N(C)O)C(=O)NCCNC(=O)CCC(=O)N(C)O`, for which the TGI in assay [1], in [2], in [3], in [4], in assay [5] and in assay [6] was more than 100 µM in each case. The TGI in assay [7] and in [8] was more than 100 µM throughout.
